In patent US10501487B2, “Antibacterial bismuth complexes” (priority 2015, dated 2019):
Like-named read-outs stand apart in the source and are kept apart here.

Key:
[1] = tested on: cos 7 (monkey kidney-derived) cells; test: MTT-based toxicology assay; format: cell-based; settings: 1 mg/mL, two hours; preliminary results
Experimental: Toxicity testing was performed on the example complexes 1-5 as well as the corresponding ligands against cos 7 eukaryotic cells. Cytotoxicity was assessed using the MTT-based toxicology assay (Sigma-Aldrich; TOX1 assay kit) according to the manufacturer's instructions. Compounds were added to cultured cos 7 (monkey kidney-derived) cells at 1 mg/mL and 0.5 mg/mL for two hours. The MTT reagent was then added and cells were incubated at 37° C. for a further two hours. Following incubation, MTT solubilisation solution was added and mixed. Absorbance results were measured on a Tecan plate reader at 690 nm (background reading) and again at 570 nm. Results were calculated after subtracting the background reading (690 nm) from the values obtained at 570 nm. Cell viability was expressed as a normalised percentage against the blank (medium-only) negative controls. All assays were performed in duplicate.

E. coli = test: Test 1: colony count after incubation in Lysogeny broth culture; format: cell-based; settings: for Colony E. coli: Table 1a, 10 mg in 5 mL culture, 2 hours at 37° C., Blank 8.00E+08 (examples), 6.40E+08 (second Blank); for inhibition of growth at 2000 µg/mL: Escherichia coli, 2 h, read-out: Reduction in bacterial growth (%) E. coli
Experimental: (§1) Bacteria were grown in […] Lysogeny broth (LB), shaking at 37° C. to an optical density (OD) of 0.6 (2-3 hr). The culture was divided in […]. One of the cultures was used as a control, containing no organobismuth(III) phosphinate complex. To the other culture, 10 mg of the appropriate organobismuth (III) phosphinate complex was added. The control and organobismuth(III) phosphinate complex-containing cultures were then incubated for 2 hours at 37° C. with shaking. An aliquot was removed from each culture, serially diluted and 50 uL spread on lysogeny broth plates (˜1 in 10^7 gives countable colony numbers for the wild type controls). The plates were incubated overnight at 37° C. The colonies were counted and multiplied by the dilution factor to determine the colony-forming unit (cfu)/ml of the original culture.
(§2) The experiments were also repeated in a lower concentration (0.5 mg/mL) in accordance with the procedure above, which is also shown in Table 2.

S. aureus = test: as above; format: cell-based; settings: for Colony S. aureus: Table 1a, 10 mg in 5 mL culture, 2 hours at 37° C., Blank 8.00E+08 (examples), 4.00E+08 (second Blank); for inhibition of growth at 2000 µg/mL: Staphylococcus aureus, 2 h, read-out: Reduction in bacterial growth (%) S. aureus
Experimental: as §1, §2

MRSA = test: Test 3: complex incorporated in agar, colony growth; format: cell-based, Staphylococcus aureus; settings: 1 mg in agar (20 mL)
Experimental: (§3) The organobismuth (III) phosphinate complex (10 mg or 1 mg) was spread at the bottom of a petri dish. 20 mL of agar was poured on top, before allowing to dry and being stored in a cool dry place. MRSA and VRE were grown in 40 mL BHI with shaking at 37° C. to an OD (optical density) of 0.6 (2-3 hr). The bacteria were then grown for a further 2 hours at 37° C. The bacteria were then plated (at no dilution, 10^3-fold dilution, and 10^4-fold dilution on agar plates containing organobismuth (III) phosphinate and control plates containing no organobismuth (III) phosphinate. The plates were incubated overnight at 37° C. The colonies were counted and multiplied by the dilution factor to determine the colony-forming unit (cfu)/ml of the original culture.

VRE = test: as above; format: cell-based, Enterococcus; settings: 1 mg in agar (20 mL)
Experimental: as §3

[2] = 0.5 mg/mL, normalised against the Blank sample
[3] = 2 mg/mL, normalised against the Blank sample

O=P([O][Bi]([O]P(=O)(c1ccccc1)c1ccccc1)[c]1ccccc1)(c1ccccc1)c1ccccc1 [Example 1, Phenyl bismuth bis(diphenylphosphinate)]
toxicity (in words) [1]: relatively non-toxic

COc1ccc(P(=O)([O][Bi]([O]P(=O)(c2ccc(OC)cc2)c2ccc(OC)cc2)[c]2ccccc2)c2ccc(OC)cc2)cc1 [Example 2, Phenyl bismuth bis(bis(4-methoxyphenyl)phosphinate)]
Reduction in bacterial growth (%) E. coli (E. coli; [2]): 100.00% | Reduction in bacterial growth (%) E. coli (E. coli; [3]): 100.00% | Colony E. coli (E. coli): 1.50E+01 cfu/ml | Reduction in bacterial growth (%) S. aureus (S. aureus; [2]): 40.00% | Reduction in bacterial growth (%) S. aureus (S. aureus; [3]): 100.00% | Colony S. aureus (S. aureus): 0.00E+00 cfu/ml

O=[N+]([O-])c1cccc(P(=O)([O][Bi]([O]P(=O)(c2cccc([N+](=O)[O-])c2)c2cccc([N+](=O)[O-])c2)[c]2ccccc2)c2cccc([N+](=O)[O-])c2)c1 [Example 3, Phenyl bismuth bis(bis(3-nitrophenyl)phosphinate)]
Reduction in bacterial growth (%) E. coli (E. coli; [2]): 97.00% | Reduction in bacterial growth (%) E. coli (E. coli; [3]): 100.00% | Colony E. coli (E. coli): 0.00E+00 cfu/ml | Reduction in bacterial growth (%) S. aureus (S. aureus; [2]): 90.00% | Reduction in bacterial growth (%) S. aureus (S. aureus; [3]): 100.00% | Colony S. aureus (S. aureus): 0.00E+00 cfu/ml | bacterial growth on treated agar (in words) (MRSA): no bacterial growth was observed | bacterial growth on treated agar (in words) (VRE): no bacterial growth was observed

O=[PH]([O][Bi]([O][PH](=O)c1ccccc1)[c]1ccccc1)c1ccccc1 (stereo not drawn) [Example 4, Phenyl bismuth bis(phenylphosphinate)]
toxicity (in words) [1]: relatively non-toxic

CP(C)(=O)[O][Bi]([O]P(C)(C)=O)[c]1ccccc1 [Example 5, Phenyl Bismuth bis(dimethylphosphinate)]
toxicity (in words) [1]: relatively non-toxic

O=[N+]([O-])c1cccc(P(=O)(O)c2cccc([N+](=O)[O-])c2)c1 [bis(3-nitrophenyl)phosphinic acid, Bis(3-nitrophenyl)phosphinic acid]
inhibition of growth at 2000 µg/mL (E. coli; [3]): 90% | Colony E. coli (E. coli): 8.00E+07 cfu/ml | inhibition of growth at 2000 µg/mL (S. aureus; [3]): 0% | Colony S. aureus (S. aureus): 8.00E+08 cfu/ml

COc1ccc(P(=O)(O)c2ccc(OC)cc2)cc1 [bis(4-methoxyphenyl)phosphinic acid]
inhibition of growth at 2000 µg/mL (E. coli; [3]): 90% | Colony E. coli (E. coli): 8.00E+07 cfu/ml | inhibition of growth at 2000 µg/mL (S. aureus; [3]): 25% | Colony S. aureus (S. aureus): 6.00E+08 cfu/ml

CP(C)(=O)O [dimethyl phosphinic acid]
inhibition of growth at 2000 µg/mL (E. coli): 78.8% | Colony E. coli (E. coli): 1.70E+08 cfu/ml | inhibition of growth at 2000 µg/mL (S. aureus): 25% | Colony S. aureus (S. aureus): 6.00E+08 cfu/ml

O=P(O)(c1ccccc1)c1ccccc1 [diphenylphosphinic acid]
inhibition of growth at 2000 µg/mL (E. coli; [3]): 70% | Colony E. coli (E. coli): 2.40E+08 cfu/ml | inhibition of growth at 2000 µg/mL (S. aureus; [3]): 0% | Colony S. aureus (S. aureus): 8.00E+08 cfu/ml

O=[PH](O)c1ccccc1 [phenylphosphinic acid]
inhibition of growth at 2000 µg/mL (E. coli): 60% | Colony E. coli (E. coli): 3.20E+08 cfu/ml | inhibition of growth at 2000 µg/mL (S. aureus): 0% | Colony S. aureus (S. aureus): 8.00E+08 cfu/ml

c1cc[c]([Bi]([c]2ccccc2)[c]2ccccc2)cc1 [triphenylbismuth]
bacterial growth on treated agar (in words) (MRSA): grew to a comparable number as the blank | bacterial growth on treated agar (in words) (VRE): grew to a comparable number as the blank
